Where no end group is shown, it is not given here.
Experiments:
[1] = system: human cervical cancer HeLa cells; test: Matrigel invasion with anti-sera from immunized mice; assay type: cell-based; details: anti-sera 1:100 dilution, 24 hours, FIGS. 3A-3D
Description: Human cervical cancer (Hela) and murine melanoma B16F0 cells obtained from ATCC (American Type Culture Collection, Rockville, Md.) were maintained in Dulbecco's modified Eagle's medium supplemented with 10% fetal bovine serum and antibiotics. The media and sera used were obtained from ATCC, and antibiotics (penicillin and streptomycin) were from Gibco BRL, Long Island, N.Y.
Invasion studies were conducted using Matrigel™ (Becton Dickinson) inserts in 24-well plates. Suspended in medium containing anti-sera from the experimental immunized mice 1:100 dilution, human cervical cancer HeLa cells seeded on the insert in the well. The well has human dermal fibroblast primed media as chemotaxtant. The plates with the inserts were then incubated in a culture incubator equilibrated with 95% air and 5% CO: for 24 hours. After incubation, the media from the wells were withdrawn. The cells on the upper surface of the insert were gently scrubbed away with cotton swabs. The cells that had penetrated the Matrigel™ membrane were stained with hematoxylin and eosin (H&E) and visually counted under the microscope.

[2] = system: anti-peptide mouse IgG; test: Anti-peptide immune response assay (Elisa) on serum of immunized mice; assay type: in vivo, Male C57BL/6 mice; details: for Elisa Test pep before B16FO given / Elisa Test pep after B16FO given: read at 450 nm
Description: In another embodiment, the synthesized oligopeptides were biotinylated at N-terminal using four carbon spacers by Genscript (Pitcataway, N.J. 08554 USA) and conjugated to KLH protein. In an experiment performed on mice animals were procured, immunized, tumor induced and observed for effectiveness of the treatment of oligopeptide-induced immunotherapy.
The injections were prepared using 100 μl l of KLH conjugated biotinylated peptides and 100 μl of complete Freund's adjuvant (Sigma, St. Louis, Mo.).
(§1) Male C57BL/6 mice 6 weeks of age on arrival were purchased from Simonsen Laboratories, Gilroy, Calif. and maintained in microisolator cage under pathogen-free conditions on a 12-h light/12-h dark schedule for a week. All animals were cared for in accordance with institutional guidelines for the care and use of experimental animals. After housing for a week, the mice (n=5/group) were immunized by intraperitoneal injection on Day 0, and incomplete Freund adjuvant (Sigma) on Day 7, 14 and 28. The blood samples were tested for their immune response by standard Elisa test using microtiter plates. Repeating injections of synthetic peptides in mice produce an immune response to specific individual peptides. Various dilutions were tried and examples of dilutions tried are 1:100, 1:1000 and 1:10000.
All four peptides were conjugated covalently to keyhole limpet hemocyanin (KLH) protein. In a typical experiment 1 mg of the peptide, 4 mg of KLH was dissolved in 5 ml of 0.01 M NaHCO3 and 2 μl of glutaraldehyde and stirred overnight. At the end 100 μl of 1M glycine ethyl ester to the final concentration of 0.1 M and left for 30 min at room temperature. Then precipitated with 4-5 vol of cold acetone at −70 C for 30 minute. Then briefly warmed at room temperature and pellet at 10,000 g for 10 min. The pellet was dissolved in 1 ml of 0.1M NaHCO3 and stored at −20° C.
Microtiter plates were coated with individual peptide in 100 µl/well […] carbonate buffer, pH 9.5 for 20 h at 20° C. After washing, wells were incubated with serial dilution of mouse serum in PBS/0.5% BSA, Tween 20 (binding buffer, BB). After washing, well were incubated with 100 µl/well rabbit anti-mouse IgG polyclonal antibody conjugated with horseradish peroxidase (HRP) in BB for 30 rain at 37° C. After washing, the titer of anti-peptide mouse IgG was determined by color reaction with TMB substrate solution at 450 nm.

[3] = system: murine melanoma B16F0 cells; test: Tumor growth after challenge of immunized mice with melanoma cells; assay type: in vivo, Male C57BL/6 mice; details: visual, FIG. 7 A-E
Text: as §1
After dosing the mice, on 45th day, mice were bleed through orbital puncture and blood was collected in 2-ml micro centrifuged tube. After testing for immune response against individual peptides, the mice in each group were inoculated subcutaneously with 0.5×10^6 in 0.2 ml PBS. After injection, the mice were returned the cages and fed regular Purina mouse chow diet. After four weeks, the mice were sacrificed and their tumors were excised. Dimensions (length and width) of tumors were measured using digital caliper, and tumor burden was calculated using the following formula: […].

[4] = column 5, serum dilution 1:1000
[5] = column 5, serum dilution 1:10000
[6] = column 6, serum dilution 1:1000
[7] = column 6, serum dilution 1:10000
[8] = column 7, serum dilution 1:1000
[9] = column 7, serum dilution 1:10000
[10] = column 8, serum dilution 1:1000
[11] = column 8, serum dilution 1:10000
[12] = column 9, serum dilution 1:1000
[13] = column 9, serum dilution 1:10000
[14] = column 10, serum dilution 1:100
[15] = column 10, serum dilution 1:1000
[16] = column 10, serum dilution 1:10000
[17] = column 11, serum dilution 1:100
[18] = column 11, serum dilution 1:1000
[19] = column 11, serum dilution 1:10000
[20] = column 12, serum dilution 1:100
[21] = column 12, serum dilution 1:1000
[22] = column 12, serum dilution 1:10000

Substance | Elisa Test pep before B16FO given ([2]; column 5, serum dilution 1:100) | Elisa Test pep before B16FO given [2, 4] | Elisa Test pep before B16FO given [2, 5] | Elisa Test pep before B16FO given ([2]; column 6, serum dilution 1:100) | Elisa Test pep before B16FO given [2, 6] | Elisa Test pep before B16FO given [2, 7] | Elisa Test pep before B16FO given ([2]; column 7, serum dilution 1:100) | Elisa Test pep before B16FO given [2, 8] | Elisa Test pep before B16FO given [2, 9] | Elisa Test pep before B16FO given ([2]; column 8, serum dilution 1:100) | Elisa Test pep before B16FO given [2, 10] | Elisa Test pep before B16FO given [2, 11] | Elisa Test pep after B16FO given ([2]; column 9, serum dilution 1:100) | Elisa Test pep after B16FO given [2, 12] | Elisa Test pep after B16FO given [2, 13] | Elisa Test pep after B16FO given [2, 14] | Elisa Test pep after B16FO given [2, 15] | Elisa Test pep after B16FO given [2, 16] | Elisa Test pep after B16FO given [2, 17] | Elisa Test pep after B16FO given [2, 18] | also measured
-C-H-F-P-F-I-F-E-G-R-S-Y-S-A-C- (CHFPFIFEGRSYSAC; cysteine pairing not given here; also: biotinylated, KLH conjugate) [MMP-9 A-1, MMP-9 oligopeptide, biotinylated and conjugated to KLH for immunization] | 3.898 | 3.402 | .394 | 3.868 | 1.901 | .274 | 3.843 | 1.033 | .228 | 3.895 | 2.127 | .330 | 3.897 | 3.624 | .645 | 3.864 | 1.875 | .244 | 3.820 | .999 | cells invading through the Matrigel compared to control [1]: more in number compared to MMP-9 A1 treated cells; Elisa Test pep after B16FO given [2, 19]: .226; Elisa Test pep after B16FO given [2, 20]: 3.87; Elisa Test pep after B16FO given [2, 21]: 2.01; Elisa Test pep after B16FO given [2, 22]: .22
-C-P-R-K-P-K-W-D-K-C- (CPRKPKWDKC; cysteine pairing not given here; also: biotinylated, KLH conjugate) [MMP-2 A-4, MMP-2 oligopeptide, biotinylated and conjugated to KLH for immunization] | 1.485 | .650 | .220 | 2.409 | .974 | .257 | 1.811 | .771 | .208 | 1.649 | .289 | .168 | 1.836 | .706 | .290 | 3.172 | 1.286 | .313 | 2.278 | .775 | intensity of immune response ([2]; 1:100 dilution): slightly less; Elisa Test pep after B16FO given [2, 19]: .230; Elisa Test pep after B16FO given [2, 20]: 1.621; Elisa Test pep after B16FO given [2, 21]: .294; Elisa Test pep after B16FO given [2, 22]: .167
-D-R-D-K-L-F-G-F-C-P-T-R-A-D-S- (DRDKLFGFCPTRADS; also: biotinylated, KLH conjugate) [MMP-9 A-3, MMP-9 oligopeptide, biotinylated and conjugated to KLH for immunization] | 3.775 | .394 | .159 | 3.810 | 2.157 | .631 | 1.991 | .272 | .159 | 3.812 | 2.281 | .267 | 3.776 | .448 | .167 | 3.814 | 1.332 | .209 | 2.063 | .448 | size of excised tumors [3]: one of the tumors have completely disappeared; Elisa Test pep after B16FO given [2, 19]: .158; Elisa Test pep after B16FO given [2, 20]: 3.84; Elisa Test pep after B16FO given [2, 21]: 2.34; Elisa Test pep after B16FO given [2, 22]: .296
-D-T-D-D-R-F-G-F- (DTDDRFGF; also: biotinylated, KLH conjugate) [M MP-9 A-2, MMP-9 oligopeptide, biotinylated and conjugated to KLH for immunization] | 3.581 | .646 | .224 | 3.863 | 1.339 | .261 | 3.870 | 2.856 | .477 | 3.238 | .360 | .175 | 3.635 | .526 | .203 | 3.609 | .859 | .235 | 3.465 | .277 | Elisa Test pep after B16FO given [2, 19]: .161; Elisa Test pep after B16FO given [2, 20]: 3.86; Elisa Test pep after B16FO given [2, 21]: .274; Elisa Test pep after B16FO given [2, 22]: .348

— patent US8067009B1, “Metalloproteinase oligopeptides and their therapeutic use” (priority 2011, dated 2011)
